From BindingDB's records for doi:10.1124/jpet.104.074146 (Meiji Seika Kaisha, 2005)

What was measured:
Glucocorticoid receptor = biological target: T1, Glucocorticoid receptor (Homo sapiens, UniProt P04150)
T1 sequence (P04150 whole entry): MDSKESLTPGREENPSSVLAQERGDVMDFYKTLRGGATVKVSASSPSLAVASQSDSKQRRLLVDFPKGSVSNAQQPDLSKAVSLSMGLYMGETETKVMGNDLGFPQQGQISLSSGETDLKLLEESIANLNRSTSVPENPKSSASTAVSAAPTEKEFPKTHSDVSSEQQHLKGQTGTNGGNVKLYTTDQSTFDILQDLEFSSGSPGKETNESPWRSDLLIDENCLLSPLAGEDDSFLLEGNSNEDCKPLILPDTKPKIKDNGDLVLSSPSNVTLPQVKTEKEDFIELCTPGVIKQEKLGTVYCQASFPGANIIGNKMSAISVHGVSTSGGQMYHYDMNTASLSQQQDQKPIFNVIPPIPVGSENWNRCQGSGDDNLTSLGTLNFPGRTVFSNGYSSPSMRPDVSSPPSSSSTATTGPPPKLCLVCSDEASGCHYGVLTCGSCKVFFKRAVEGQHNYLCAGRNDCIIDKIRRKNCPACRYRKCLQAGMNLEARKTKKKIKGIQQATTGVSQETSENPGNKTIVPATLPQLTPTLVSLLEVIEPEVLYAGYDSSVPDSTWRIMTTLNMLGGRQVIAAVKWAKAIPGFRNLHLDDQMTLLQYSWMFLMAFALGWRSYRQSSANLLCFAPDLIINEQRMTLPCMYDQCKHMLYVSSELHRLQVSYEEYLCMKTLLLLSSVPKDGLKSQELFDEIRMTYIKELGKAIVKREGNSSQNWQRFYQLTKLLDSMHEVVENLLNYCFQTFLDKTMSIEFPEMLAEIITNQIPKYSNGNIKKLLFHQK

Estrogen receptor = biological target: T2, Estrogen receptor (Homo sapiens, UniProt P03372)
T2 sequence (P03372 whole entry): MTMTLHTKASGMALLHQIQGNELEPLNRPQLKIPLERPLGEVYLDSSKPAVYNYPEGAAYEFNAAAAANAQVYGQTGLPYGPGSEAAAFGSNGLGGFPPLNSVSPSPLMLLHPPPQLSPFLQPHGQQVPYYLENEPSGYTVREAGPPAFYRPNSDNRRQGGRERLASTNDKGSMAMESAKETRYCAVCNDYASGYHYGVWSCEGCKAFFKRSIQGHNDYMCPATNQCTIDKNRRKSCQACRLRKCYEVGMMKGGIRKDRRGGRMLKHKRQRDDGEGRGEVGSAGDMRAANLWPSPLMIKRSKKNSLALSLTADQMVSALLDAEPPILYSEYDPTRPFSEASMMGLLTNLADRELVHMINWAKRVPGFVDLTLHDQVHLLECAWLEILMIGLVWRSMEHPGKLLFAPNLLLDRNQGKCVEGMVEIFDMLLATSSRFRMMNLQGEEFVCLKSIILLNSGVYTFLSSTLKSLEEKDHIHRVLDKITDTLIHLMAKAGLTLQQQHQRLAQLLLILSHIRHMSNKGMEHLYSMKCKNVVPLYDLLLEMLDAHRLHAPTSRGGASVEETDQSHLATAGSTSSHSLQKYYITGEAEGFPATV

Progesterone receptor = biological target: T3, Progesterone receptor (Homo sapiens, UniProt P06401)
T3 sequence (P06401 whole entry): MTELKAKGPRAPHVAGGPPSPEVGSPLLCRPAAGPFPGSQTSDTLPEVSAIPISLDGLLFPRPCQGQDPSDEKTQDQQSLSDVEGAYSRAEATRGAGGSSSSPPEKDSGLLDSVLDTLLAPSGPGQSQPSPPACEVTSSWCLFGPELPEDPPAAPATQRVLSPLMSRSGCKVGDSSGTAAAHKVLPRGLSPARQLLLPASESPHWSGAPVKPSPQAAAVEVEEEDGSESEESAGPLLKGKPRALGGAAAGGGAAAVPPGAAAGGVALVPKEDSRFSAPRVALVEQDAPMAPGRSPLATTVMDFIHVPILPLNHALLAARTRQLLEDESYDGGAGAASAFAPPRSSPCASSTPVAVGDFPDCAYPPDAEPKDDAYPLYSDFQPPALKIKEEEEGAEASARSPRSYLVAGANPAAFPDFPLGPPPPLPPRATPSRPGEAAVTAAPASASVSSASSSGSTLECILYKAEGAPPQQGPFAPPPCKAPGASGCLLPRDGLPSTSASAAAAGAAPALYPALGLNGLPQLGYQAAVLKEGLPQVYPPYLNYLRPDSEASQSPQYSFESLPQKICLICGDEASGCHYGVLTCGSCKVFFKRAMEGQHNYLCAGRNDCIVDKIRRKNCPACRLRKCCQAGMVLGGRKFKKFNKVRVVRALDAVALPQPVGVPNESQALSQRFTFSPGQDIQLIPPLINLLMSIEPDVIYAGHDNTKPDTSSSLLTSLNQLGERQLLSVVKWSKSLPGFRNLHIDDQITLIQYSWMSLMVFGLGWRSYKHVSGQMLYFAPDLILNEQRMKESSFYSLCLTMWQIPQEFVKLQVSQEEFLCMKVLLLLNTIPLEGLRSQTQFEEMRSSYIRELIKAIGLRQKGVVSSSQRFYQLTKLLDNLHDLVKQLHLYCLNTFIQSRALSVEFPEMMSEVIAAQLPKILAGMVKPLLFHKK

Androgen receptor = biological target: T4, Androgen receptor (Rattus norvegicus, UniProt P15207)
T4 sequence (P15207 whole entry): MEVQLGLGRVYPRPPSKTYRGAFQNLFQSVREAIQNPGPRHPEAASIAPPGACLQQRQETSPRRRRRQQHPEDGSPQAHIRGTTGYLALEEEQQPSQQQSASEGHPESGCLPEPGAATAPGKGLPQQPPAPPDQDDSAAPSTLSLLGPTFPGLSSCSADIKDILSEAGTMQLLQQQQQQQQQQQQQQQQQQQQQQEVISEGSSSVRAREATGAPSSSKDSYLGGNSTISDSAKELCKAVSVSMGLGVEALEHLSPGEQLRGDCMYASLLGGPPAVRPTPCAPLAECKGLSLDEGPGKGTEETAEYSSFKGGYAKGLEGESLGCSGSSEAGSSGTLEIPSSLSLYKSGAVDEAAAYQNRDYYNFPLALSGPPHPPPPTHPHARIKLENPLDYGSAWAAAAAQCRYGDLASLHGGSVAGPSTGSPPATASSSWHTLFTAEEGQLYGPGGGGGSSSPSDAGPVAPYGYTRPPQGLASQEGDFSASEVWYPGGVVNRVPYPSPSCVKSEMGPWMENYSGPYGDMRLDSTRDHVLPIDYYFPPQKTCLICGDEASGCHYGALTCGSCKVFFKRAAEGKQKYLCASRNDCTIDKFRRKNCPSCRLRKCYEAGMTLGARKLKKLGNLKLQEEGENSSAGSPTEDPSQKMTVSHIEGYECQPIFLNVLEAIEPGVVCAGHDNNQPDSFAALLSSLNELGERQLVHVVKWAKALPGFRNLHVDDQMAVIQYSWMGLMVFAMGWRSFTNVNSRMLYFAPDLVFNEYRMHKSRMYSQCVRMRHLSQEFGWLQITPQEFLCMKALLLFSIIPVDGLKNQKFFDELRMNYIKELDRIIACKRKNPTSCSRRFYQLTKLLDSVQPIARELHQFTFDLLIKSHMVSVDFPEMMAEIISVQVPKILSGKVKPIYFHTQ

Ki (Glucocorticoid receptor) | IC50 (Estrogen receptor) | IC50 (Progesterone receptor) | IC50 (Androgen receptor) | SMILES
> 5000 nM | > 10000 nM | 25 nM |  | COC1C=C2C=C3C(=C(C)C(=O)N3C)[C@@H](C)[C@]2(C)CC1OC(=O)N(C)C (stereo partly drawn) [CP8816]
> 10000 nM | > 10000 nM | 40 nM | 9700 nM | CNC(=O)OC1C[C@]2(C)C(=CC1O)C=C1C(=C(C)C(=O)N1C)[C@H]2C (stereo partly drawn) [CP8863]
43 nM |  |  |  | CC(=O)OC1(C(C)=O)CCC2C3CC(C)C4=CC(=O)CCC4(C)C3CCC21C (stereo not drawn) [NSC_4042]
